The structures appear in SMILES notation. Where two headings read alike, the source gives them in different places.

In this assay the target is T1, F508delCFTR (Homo sapiens, UniProt P13569, DEL508-508).
T1 construct: expressed in transfected cells; host or cells: CFBE41o- human lung-derived epithelial cells (CFBE4lo-F508delCFTR-HRP), doxycycline-inducible
The assay is described as follows: Cell Surface Expression-Horse Radish Peroxidase (CSE-HRP) Assay.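 On Maximum % activity (with co-corrector): co-corrector and positive control are both the same reference corrector at 2 µM.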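 On Maximum % activity (without co-corrector): percent of the 2 µM on-plate positive control corrector response above DMSO.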 Conditions: for Emax / Maximum % activity (with co-corrector): maximum at any tested concentration, normalized to on-plate positive control; for Emax: read-out: Maximum % activity (without co-corrector); for Maximum % activity (with co-corrector): with co-corrector (2 μM). It counts as cell-based.

The mark [1] stands for this setting: test compound without co-corrector.
[2] abbreviates: test compound without co-corrector, read-out: EC50 (without co-corrector).
[3] abbreviates: with co-corrector (2 μM of 3-[(2R,4R)-4-({[1-(2,2-difluoro-1,3-benzodioxol-5-yl)cyclopropyl]carbonyl}amino)-7-methoxy-3,4-dihydro-2H-chromen-2-yl]benzoic acid), read-out: EC50 (with co-corrector).

T1 sequence (P13569 with tags, fused parts or gaps DEL508-508): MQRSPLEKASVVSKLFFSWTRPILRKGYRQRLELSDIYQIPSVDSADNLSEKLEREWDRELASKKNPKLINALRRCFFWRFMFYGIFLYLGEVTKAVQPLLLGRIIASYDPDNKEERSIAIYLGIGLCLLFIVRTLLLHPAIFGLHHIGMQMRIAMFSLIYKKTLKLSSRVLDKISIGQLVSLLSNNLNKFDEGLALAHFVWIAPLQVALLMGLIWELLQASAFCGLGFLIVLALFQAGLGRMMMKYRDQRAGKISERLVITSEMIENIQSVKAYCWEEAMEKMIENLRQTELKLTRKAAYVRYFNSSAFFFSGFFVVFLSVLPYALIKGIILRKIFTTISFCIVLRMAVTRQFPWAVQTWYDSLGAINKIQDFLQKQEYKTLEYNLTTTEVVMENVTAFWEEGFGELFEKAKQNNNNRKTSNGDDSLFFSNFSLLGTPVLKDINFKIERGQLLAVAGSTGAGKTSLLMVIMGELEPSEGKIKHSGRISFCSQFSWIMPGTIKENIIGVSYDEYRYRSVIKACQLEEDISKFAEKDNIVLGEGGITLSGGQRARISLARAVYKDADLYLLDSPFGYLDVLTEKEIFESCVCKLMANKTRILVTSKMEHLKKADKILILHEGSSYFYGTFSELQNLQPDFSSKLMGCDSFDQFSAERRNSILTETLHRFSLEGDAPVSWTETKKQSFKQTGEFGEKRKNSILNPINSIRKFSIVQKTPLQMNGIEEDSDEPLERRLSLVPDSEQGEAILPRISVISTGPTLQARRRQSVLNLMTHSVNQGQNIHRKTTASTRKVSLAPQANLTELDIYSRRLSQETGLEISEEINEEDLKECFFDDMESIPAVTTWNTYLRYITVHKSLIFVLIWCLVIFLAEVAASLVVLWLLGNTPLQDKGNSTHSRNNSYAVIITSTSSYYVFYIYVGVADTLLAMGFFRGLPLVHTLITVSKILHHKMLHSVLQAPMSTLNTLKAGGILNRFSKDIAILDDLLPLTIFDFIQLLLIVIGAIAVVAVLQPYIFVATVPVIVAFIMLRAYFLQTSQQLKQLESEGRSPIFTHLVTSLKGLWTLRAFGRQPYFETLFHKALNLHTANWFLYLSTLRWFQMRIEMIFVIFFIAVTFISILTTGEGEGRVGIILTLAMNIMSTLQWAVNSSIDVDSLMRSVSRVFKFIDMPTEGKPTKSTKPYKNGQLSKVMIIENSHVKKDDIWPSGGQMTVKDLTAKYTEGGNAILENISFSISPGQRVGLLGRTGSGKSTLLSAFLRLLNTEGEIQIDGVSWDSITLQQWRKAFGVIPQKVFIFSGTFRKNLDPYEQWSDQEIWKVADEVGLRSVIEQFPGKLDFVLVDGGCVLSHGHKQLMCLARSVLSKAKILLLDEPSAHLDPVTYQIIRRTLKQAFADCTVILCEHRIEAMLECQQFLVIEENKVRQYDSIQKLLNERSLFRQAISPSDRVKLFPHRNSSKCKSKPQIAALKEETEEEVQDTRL

Turning to `COc1ncc(C2CCC2)cc1CN[C@H]1[C@H](C(C)(C)C)[C@@H](C(=O)O)N(C(=O)C2CC(C)CC(C)C2)[C@H]1c1ccccc1` (stereo partly drawn) [III-207], the “Maximum % activity (with co-corrector)” value is recorded as “+++ (≥350)”. In addition, under setting [1], the Emax was in the range of 100 to 200%. In addition, under setting [2], the EC50 was 1 to 10 µM. Also, the EC50 under setting [3] is less than 1 µM.
As to `COc1ncc(C2CCC2)cc1CN[C@H]1[C@H](C(C)(C)C)[C@@H](C(=O)O)N(C(=O)C2CCCCC2C)[C@H]1c1ccccc1` (stereo partly drawn) [III-208], the “Maximum % activity (with co-corrector)” value is given as “+++ (≥350)”. For the same molecule, the Emax under setting [1] is 100 to 200%. The EC50 under setting [2] fell in the range of 1 to 10 µM. Moreover, the EC50 under setting [3] was less than 1 µM.
The like results for `COc1ncc(C2CCC2)cc1CN[C@H]1[C@H](C(C)(C)C)[C@@H](C(=O)O)N(C(=O)C2CCCC(C(F)(F)F)C2)[C@H]1c1ccccc1` (stereo partly drawn) [III-209] were, in that order, “+++ (≥350)”, 100 to 200%, 1 to 10 µM and less than 1 µM.
In the case of `COc1ccc(C(C)(C)C)cc1CN[C@H]1[C@H](C(C)(C)C)[C@@H](C(=O)O)N(C(=O)C2CCc3cc(F)ccc3O2)[C@H]1c1cccnc1N(C)C` (stereo partly drawn) [III-210], the “Maximum % activity (with co-corrector)” value is “++ (≥150 and <350)”. The Emax under setting [1] was less than 100%. Besides, under setting [2], the EC50 lay in the range of 1 to 10 µM. Also, under setting [3], the EC50 lay within 1 to 10 µM.
As to `COc1ncc(C(F)(F)F)cc1N[C@H]1[C@H](C(C)(C)C)[C@@H](C(=O)O)N(C(=O)[C@H]2CCCC[C@@H]2C(F)(F)F)[C@H]1c1cccnc1N(C)C` [III-212], the “Maximum % activity (with co-corrector)” value was “++ (≥150 and <350)”. Besides, the Emax under setting [1] is less than 100%. Besides, the EC50 under setting [2] is more than 10 µM. The EC50 under setting [3] is 1 to 10 µM.
Consider `COc1ncc(C(F)(F)F)cc1N[C@H]1[C@H](C(C)(C)C)[C@@H](C(=O)O)N(C(=O)[C@H]2CCCCO2)[C@H]1c1cccnc1N(C)C` [III-213], for which the “Maximum % activity (with co-corrector)” value is listed as “+ (<150)”. Also, the Emax under setting [1] is less than 100%. Under setting [2], the EC50 was more than 10 µM. The EC50 under setting [3] is more than 10 µM.
On to `COc1ncc(C2CCC2)cc1CN[C@H]1[C@H](C(C)(C)C)[C@@H](C(=O)O)N(C(=O)C2CCCCC2C(F)(F)F)[C@H]1c1ccccc1` (stereo partly drawn) [III-214], for which the “Maximum % activity (with co-corrector)” value is on record as “+++ (≥350)”. In addition, the Emax under setting [1] is 100 to 200%. For the same molecule, the EC50 under setting [2] was less than 1 µM. For the same molecule, the EC50 under setting [3] is less than 1 µM.
For `COc1ccc(C(C)(C)C)cc1CN[C@H]1[C@H](C(C)(C)C)[C@@](C)(C(=O)O)N(C(=O)[C@H](OC)c2ccccc2)[C@H]1c1ccccc1` [III-215], the “Maximum % activity (with co-corrector)” value is “++ (≥150 and <350)”. The Emax under setting [1] is less than 100%. Moreover, under setting [2], the EC50 was in the range of 1 to 10 µM. Also, the EC50 under setting [3] was in the range of 1 to 10 µM.
As for `Cc1cc(C(F)(F)F)cc(N[C@H]2[C@H](C(C)(C)C)[C@@H](C(=O)O)N(C(=O)[C@H]3CCCCO3)[C@H]2c2cccnc2N(C)C)n1` [III-216], the “Maximum % activity (with co-corrector)” value is “++ (≥150 and <350)”. Further, the Emax under setting [1] is less than 100%. Also, under setting [2], the EC50 lay within 1 to 10 µM. Under setting [3], the EC50 was 1 to 10 µM.
In the case of `COc1ccc(C(C)(C)C)cc1CN[C@H]1[C@H](C(C)(C)C)[C@@H](C(=O)O)N(C(=O)N(C(C)C)C(C)C)[C@H]1c1ccccc1` [III-217], the “Maximum % activity (with co-corrector)” value was “+ (<150)”. Also, the Emax under setting [1] is less than 100%. For the same molecule, the EC50 under setting [2] is more than 10 µM. Further, the EC50 under setting [3] is 1 to 10 µM.
As for `COc1ccc(C23CC(C2)C3)cc1CN[C@H]1[C@H](C(C)(C)C)[C@@H](C(=O)O)N(C(=O)OC(C)C)[C@H]1c1cccnc1OC(F)F` [III-218], the “Maximum % activity (with co-corrector)” value is listed as “+++ (≥350)”. For the same molecule, the Emax under setting [1] is 100 to 200%. The EC50 under setting [2] was in the range of 1 to 10 µM. Besides, the EC50 under setting [3] was in the range of 1 to 10 µM.
In the case of `COc1nc(C(C)(C)C)ccc1CN[C@H]1[C@H](C(C)(C)C)[C@@H](C(=O)O)N(C(=O)OC(C)C)[C@H]1c1cccnc1N(C)C` [III-219], the “Maximum % activity (with co-corrector)” value is listed as “+++ (≥350)”. Also, the Emax under setting [1] was 100 to 200%. The EC50 under setting [2] lay in the range of 1 to 10 µM. Moreover, the EC50 under setting [3] is less than 1 µM.
Regarding `COc1ccc(C23CC(C2)C3)cc1CN[C@H]1[C@H](C(C)(C)C)[C@@H](C(=O)O)N(C(=O)OC(C)C)[C@H]1c1ccccc1C(C)C` [III-220], the “Maximum % activity (with co-corrector)” value was “+++ (≥350)”. Under setting [1], the Emax is more than 200%. In addition, the EC50 under setting [2] was less than 1 µM. The EC50 under setting [3] was less than 1 µM.
For the molecule `COc1ncc(C(F)(F)F)cc1CN[C@H]1[C@H](C23CC(C2)C3)[C@@H](C(=O)O)N(C(=O)OC(C)C)[C@H]1c1ccccc1` [III-221], the “Maximum % activity (with co-corrector)” value is “+++ (≥350)”. In addition, the Emax under setting [1] lay in the range of 100 to 200%. Also, the EC50 under setting [2] lay in the range of 1 to 10 µM. Besides, under setting [3], the EC50 lay within 1 to 10 µM.
In the case of `COc1ccc(C(C)(C)C)cc1CN[C@H]1[C@H](C23CC(C2)C3)[C@@H](C(=O)O)N(C(=O)OC(C)C)[C@H]1c1ccccc1F` [III-222], the “Maximum % activity (with co-corrector)” value is listed as “+++ (≥350)”. Also, the Emax under setting [1] lay within 100 to 200%. Moreover, under setting [2], the EC50 lay in the range of 1 to 10 µM. Besides, under setting [3], the EC50 lay within 1 to 10 µM.
`COc1ncc(C2CCC2)cc1CN[C@H]1[C@H](C(C)(C)C)[C@@H](C(=O)O)N(C(=O)OC(C)C)[C@H]1c1cccnc1N(C)C` [III-224]: the “Maximum % activity (with co-corrector)” value is “+++ (≥350)”. Under setting [1], the Emax was more than 200%. The EC50 under setting [2] lay within 1 to 10 µM. The EC50 under setting [3] lay in the range of 1 to 10 µM.
Take `COc1ccc(SC(F)(F)F)cc1CN[C@H]1[C@H](C(C)(C)C)[C@@H](C(=O)O)N(C(=O)OC(C)C)[C@H]1c1cccnc1N(C)C` [III-225]: the “Maximum % activity (with co-corrector)” value is recorded as “+++ (≥350)”. For the same molecule, the Emax under setting [1] is more than 200%. For the same molecule, the EC50 under setting [2] was in the range of 1 to 10 µM. In addition, the EC50 under setting [3] lay in the range of 1 to 10 µM.
Consider `COc1cc2c(cc1CN[C@H]1[C@H](C(C)(C)C)[C@@H](C(=O)O)N(C(=O)OC(C)C)[C@H]1c1ccccc1)CCC2` [III-226], for which the “Maximum % activity (with co-corrector)” value was “+++ (≥350)”. The Emax under setting [1] was more than 200%. Also, under setting [2], the EC50 fell in the range of 1 to 10 µM. The EC50 under setting [3] lay in the range of 1 to 10 µM.
As to `COc1cc2c(cc1CN[C@H]1[C@H](C(C)(C)C)[C@@H](C(=O)O)N(C(=O)OC(C)C)[C@H]1c1ccccc1)C(C)(C)CCC2(C)C` [III-227], the “Maximum % activity (with co-corrector)” value was “+++ (≥350)”. Further, the Emax under setting [1] was 100 to 200%. Besides, the EC50 under setting [2] lay within 1 to 10 µM. For the same molecule, the EC50 under setting [3] is less than 1 µM.
As to `COc1ccc(C(C)(C)C)cc1CN[C@H]1[C@H](C(C)(C)C)[C@@H](C(=O)O)N(C(=O)OC(C)C)[C@H]1c1cccnc1OC(C)C` [III-229], the “Maximum % activity (with co-corrector)” value is “+++ (≥350)”. Also, the Emax under setting [1] is more than 200%. Moreover, under setting [2], the EC50 is 1 to 10 µM. In addition, the EC50 under setting [3] is less than 1 µM.
Regarding `COc1ccc(C(C)(C)C)cc1CN[C@H]1[C@H](C(C)(C)C)[C@@H](C(=O)O)N(C(=O)[C@]2(C)COc3cc4c(cc32)OC(F)(F)O4)[C@H]1c1cccnc1OC` [III-230], the “Maximum % activity (with co-corrector)” value was “++ (≥150 and <350)”. The Emax under setting [1] is less than 100%. Further, the EC50 under setting [2] lay within 1 to 10 µM. For the same molecule, under setting [3], the EC50 was in the range of 1 to 10 µM.
Consider `COc1ccc(OC(F)(F)F)cc1CN[C@H]1[C@H](C(C)(C)C)[C@@H](C(=O)O)N(C(=O)OC(C)C)[C@H]1c1cccnc1OC(C)C` [III-231], for which the “Maximum % activity (with co-corrector)” value is “+++ (≥350)”. The Emax under setting [1] was more than 200%. Further, under setting [2], the EC50 lay in the range of 1 to 10 µM. Further, under setting [3], the EC50 lay within 1 to 10 µM.
Regarding `CCC(C)(C)c1ccc(OC)c(CN[C@H]2[C@H](C(C)(C)C)[C@@H](C(=O)O)N(C(=O)OC(C)C)[C@H]2c2cccnc2N(C)C)c1` [III-232], the “Maximum % activity (with co-corrector)” value is “+++ (≥350)”. Under setting [1], the Emax is more than 200%. Also, the EC50 under setting [2] is 1 to 10 µM. Besides, the EC50 under setting [3] lay within 1 to 10 µM.
As to `COc1ccc(C2(C)CCC2)cc1CN[C@H]1[C@H](C(C)(C)C)[C@@H](C(=O)O)N(C(=O)[C@@H]2CCCCO2)[C@H]1c1cccnc1OC` [III-233], the “Maximum % activity (with co-corrector)” value is “+++ (≥350)”. Also, the Emax under setting [1] is more than 200%. Moreover, the EC50 under setting [2] is 1 to 10 µM. Moreover, the EC50 under setting [3] lay in the range of 1 to 10 µM.
Take `COc1ccc(C2(C)CCC2)cc1CN[C@H]1[C@H](C(C)(C)C)[C@@H](C(=O)O)N(C(=O)[C@H]2CCCCO2)[C@H]1c1cccnc1OC` [III-234]: the “Maximum % activity (with co-corrector)” value is listed as “+++ (≥350)”. Further, under setting [1], the Emax lay within 100 to 200%. The EC50 under setting [2] lay within 1 to 10 µM. Moreover, the EC50 under setting [3] lay within 1 to 10 µM.
In the case of `CC(C)OC(=O)N1[C@H](C(=O)O)[C@@H](C(C)(C)C)[C@H](NCC2CCN(C(C)C)CC2)[C@@H]1c1ccccc1` [III-235], the “Maximum % activity (with co-corrector)” value is listed as “+ (<150)”. Besides, under setting [1], the Emax is less than 100%. Also, under setting [2], the EC50 is more than 10 µM. In addition, the EC50 under setting [3] is less than 1 µM.
As to `COc1ncc(C2CCC2)cc1CN[C@@H]1[C@@H](C(C)(C)C)[C@H](C(=O)O)N(C(=O)[C@@H]2CCCO2)[C@@H]1c1ccccc1Cl` [III-236], the “Maximum % activity (with co-corrector)” value was “++ (≥150 and <350)”. In addition, the Emax under setting [1] is less than 100%. Also, the EC50 under setting [2] lay in the range of 1 to 10 µM. Under setting [3], the EC50 is 1 to 10 µM.

One may read the EC50 as the concentration that produces a half-maximal response.

These data come from patent publication US20180099931A1 (AbbVie S.à.r.l., priority 2016, published 2018).
